Reference: patent US9045505B2, “Nitric oxide donors” (University of Otago, priority 2006, dated 2015)

Columns and labels:
Jurkat cells = assay: Respiration of Jurkat cells (O2 electrode); type: cell-based; settings: 5 μM; for effect on respiration by Jurkat cells: 37° C.
Method: FIG. 10 is a series of traces and graphs showing the effect of MitoSNAP on respiration in cells. (a-d) Jurkat cells (55×10^6 cells) were incubated in PBS supplemented with 25 mM Hepes pH 7.2 (NaOH), 1 mM sodium pyruvate, 10 μM neocuproine and 100 μM DTPA in the stirred 2.5 ml chamber of an oxygen electrode at 37° C. with 5 μM MitoSNAP (a), MitoNAP (b), SNAP (c) or MitoSNAP and FCCP (500 nM) (d). Where indicated 5 μM OxyHb was added. Traces show typical experiments that were repeated at least three times. Sections of the 02 electrode trace where OxyHb was added for (a) and (b) have been expanded 4-fold in the vertical dimension to facilitate inspection. In all traces the dashed line indicates anaerobiosis. (e) Effect of MitoSNAP on O2 bioavailability in hypoxia. HeLa cells were incubated at 1% O2 concentration with 5% CO2 and the balance N2 for […] before the indicated treatments. Cellular pO2 values, measured by fluorescence quenching oximetry and expressed as mean±sd, are shown. (**p<0.001 compared to hypoxia alone and to MitoNAP treatments by ANOVA).
Cell culture. Cells were grown in medium supplemented with 10% fetal calf serum (FCS), penicillin (100 U.ml^−1) and streptomycin (100 μg.ml^−1) at 37° C. in a humidified atmosphere of 95% air/5% CO2. Jurkat cells were cultured in Roswell park memorial institute (RPMI) 1640 medium supplemented with 2 mM Glutamax and 25 mM Hepes. HeLa cells were grown in minimum essential eagle medium (MEM) containing 2 mM glutamine and non-essential amino acids and were grown to 100% confluence prior to use. […]
To evaluate the selective uptake of MitoSNAP by mitochondria within cells, the effect of MitoSNAP on respiration by Jurkat cells, a T lymphocyte cell line that grows in suspension, was measured using an O2 electrode (FIG. 10). […] Then the effects of a further 30 min incubation with MitoSNAP, MitoNAP or the mitochondrial inhibitor myxathiazol on the steady-state extracellular pO2 was assessed by fluorescence quenching oximetry (FIG. 10e).

[1] = tested on: Langendorff-perfused mouse hearts; assay: Cardiac ischemia-reperfusion injury in Langendorff-perfused mouse hearts (ex vivo)
Method: FIG. 16 is a series of graphs showing the vasodilatory and tissue protective effects of MitoSNAP. (a) Dose-response curves for the effect of MitoSNAP and related compounds on blood vessel relaxation. The effects of intact or decomposed MitoSNAP and SNAP on pre-contracted rat thoracic aorta mounted in a myograph were determined Data represent means±sem. For MitoSNAP n=8 from experiments on two independent rat aorta preparations. For decomposed MitoSNAP and SNAP experiments the data (n=4) are from one aorta preparation. (b) EC50 for the effect of MitoSNAP and SNAP on blood vessel relaxation. The EC50 values were determined from experiments shown in (a) above. ***p<0.001 by Student's unpaired t-test. (c & d) MitoSNAP protects against I/R injury in Langendorff-perfused mouse hearts. Hearts from C57BL6 mice were Langendorff perfused and subjected to 25 min global normothermic ischemia followed by 1 h of reperfusion. MitoSNAP or MitoNAP (100 nM final), or vehicle carrier, was added via an infusion port above the aortic cannula during reperfusion. Hearts were then stained with 2,3,5-triphenyltetrazolium chloride (TTC) to visualize infarct. (c) Protection of heart function by MitoSNAP during I/R injury. Left ventricular contractile function was recorded throughout the I/R protocol.
FIG. 18 is a graph showing the effect of pre-ischemic administration of MitoSNAP or MitoNAP on recovery of heart function (rate pressure product) from IR injury. Experiments were carried out exactly as described in FIGS. 16c & 16d, except that MitoSNO1 or MitoNAP were infused into the heart for 20 min, followed by a 2 min wash-out period, prior to the onset of ischemia. White symbols=vehicle control, black symbols=MitoSN01, gray symbols=MitoNAP. Data are means±sem, n≧6. […]
There is considerable evidence pointing to mitochondrial damage during the reperfusion phase of cardiac ischemia-reperfusion (I/R) injury. […] Therefore we determined if MitoSNAP could decrease I/R injury in a mouse heart Langendorff model (FIGS. 16c & d). […]

complex I = assay: Respiration by bovine heart mitochondrial membranes on NADH or succinate; type: biochemical; settings: 75 μM, 5 min
Method: (a) Effect of MitoSNAP on mitochondrial respiration.
Mitochondrial preparations and incubations.

| Structure (SMILES) | effect on respiration by Jurkat cells (Jurkat cells) | infarct size ([1]; 100 nM during reperfusion) | recovery of heart function (rate pressure product) ([1]; 100 nM during reperfusion, 25 min ischemia, 1 h reperfusion) | protection against I/R injury ([1]; delivered before the I/R injury) | effect on succinate respiration (complex I) | inhibition of NADH respiration (complex I) | time for which a low O2 concentration was maintained (Jurkat cells; low O2 concentrations) |
| --- | --- | --- | --- | --- | --- | --- | --- |
| CC(=O)NC(C(=O)O)C(C)(C)SN=O (racemic) [SNAP, S-nitroso-N-acetyl-DL-penicillamine, reference compound] | had no effect on respiration |  |  |  |  |  |  |
| CC(=O)NC(C(=O)NCCCCC[P+](c1ccccc1)(c1ccccc1)c1ccccc1)C(C)(C)SN=O.CS(=O)(=O)[O-] (centres unmarked) [MitoSNAP, [5-(2-acetylamino-3-methyl-3-nitrosothio-butyrylamino)-penty1]-triphenylphosphonium methanesulfonate] | respiration rate decreased and approached zero | decrease in infarct size | better recovery of heart function | small degree of protection | unaffected | about 35% | at least 30 min |
